Test results as given in patent publication US12194042B2, “Uses” (INTRA-CELLULAR THERAPIES, INC., priority 2018, dated 2025).
“Also recorded” adds a separate entry of the source.

How the values were obtained:
Type in all cases: in vivo, human
[1] = system: patients with mild to moderate Parkinson's Disease (PD); assay: Unified Dyskinesia Rating Scale (UDysRS) in the Phase 1/2 study; details: FIG. 2
Experimental: (§1) A Phase 1/2 randomized, double-blind, placebo-controlled, multiple rising dose clinical study was carried out to evaluate Compound 1 (below) in patients with mild to moderate Parkinson's Disease (PD).
(§2) 40 patients with idiopathic PD are recruited for the study. Patients with mild to moderate PD (Hoehn and Yahr staging score of 1-3 assessed in the “On” state) maintained on stable PD therapy are randomly assigned to placebo or 5 cohorts of Compound 1 at 1 mg, 3 mg, 10 mg, 30 mg, and 90 mg administered orally once daily for 7 days. All patients participating in the study are maintained on their stable PD therapy (e.g., dopamine replacement therapies), some of which are taking more than one category of PD therapy. Of the 40 patients, there are 28 receiving carbidopa/L-dopa, 14 receiving a dopamine agonist, 5 receiving amantadine, and 3 receiving MAO inhibitors.
(§3) The efficacy of Compound 1 in improving motor and non-motor symptoms of PD is measured using multiple scales, providing input from both subjects and site raters. Motor performance was improved and motor complications were reduced in the “On” state by Compound 1 relative to placebo treatment as assessed by the Movement Disorder Society Unified Parkinson's Disease Rating Scale (MDS-UPDRS) (FIG. 1). […] (FIGS. 3-4).

[2] = Pharmacokinetic profile in the Phase 1/2 study
Experimental: (§4) The study is designed to evaluate the safety and tolerability of Compound 1 in patients who are maintained on stable PD therapy. Another objective is to evaluate the pharmacokinetic profile of Compound 1 and explore its potential utility to control motor fluctuations and to evaluate treatment of non-motor symptoms (e.g., daytime sleepiness, dysautonomia) associated with PD. Biomarkers of disease progression (i.e., inflammation) are assessed.
as §2
Plasma steady state is achieved in the first 48 hours and supports once-a-day dosing for future efficacy trials.

[3] = system: patients with mild to moderate Parkinson's Disease (PD); assay: Hauser Patient Motor Diary in the Phase 1/2 study; details: rated by subjects, oral once daily for 7 days
Experimental: as §1, §2, §3

[4] = system: patients with mild to moderate Parkinson's Disease (PD); assay: Phase 1/2 randomized, double-blind, placebo-controlled, multiple rising dose clinical study: safety and tolerability
Experimental: as §1, §4, §2

[5] = system: patients with mild to moderate Parkinson's Disease (PD); assay: Unified Parkinson's Disease Rating Scale (MDS-UPDRS) in the Phase 1/2 study
Experimental: as §1, §2, §3

[6] = system: patients with mild to moderate Parkinson's Disease (PD); assay: CISI-PD (Clinical Impression of Severity Index for PD) in the Phase 1/2 study; details: versus placebo; FIG. 4
Experimental: as §1, §2

[7] = "On" state, relative to placebo, FIG. 1

CN1C(=O)c2c(nn(Cc3ccc(-c4cccc(F)n4)cc3)c2Nc2ccccc2)N2C1=N[C@@H]1CCC[C@@H]12 [Compound 1, (6aR,9aS)-5,6a,7,8,9,9a-hexahydro-5-methyl-3-(phenylamino)-2-((4-(6-fluoropyridin-2-yl)phenyl)methyl)-cyclopent[4,5]imidazo[1,2-a]pyrazolo[4,3-e]pyrimidin-4(2H)-one]
dyskinesia symptoms / motor complications measured by UDysRS ([1]; oral once daily for 7 days): reductions; also recorded: reduces dyskinesia symptoms
Objective UDysRS Total Score ([1]; subjects with dyskinesia at baseline, after treatment): Improves
time to plasma steady state ([2]; once daily oral dosing): ≤ 48 h
pharmacokinetics (dose linearity) ([2]; parent drug and metabolites, across 1 mg to 90 mg): linear pharmacokinetics
total On time (Hauser Patient Motor Diary) [3]: increased
"On" time without dyskinesias (Hauser Patient Motor Diary) ([3]; versus placebo): increases on-time without causing dyskinesia; also recorded: increased
serious adverse events ([4]; 1 mg to 90 mg orally once daily for 7 days): No serious adverse events
induction or worsening of motor complications ([4]; PD patients receiving concomitant dopamine replacement therapies): did not induce or worsen motor complications
effects on vital signs, cardiovascular or laboratory parameters ([4]; compared to placebo): no clinically significant effects
tolerability ([4]; once-daily oral for 7 days, doses from 1 mg to 90 mg): generally well tolerated
safety profile ([4]; once-daily oral for 7 days, no titration, 1 mg to 90 mg): favorable safety profile
side effects of dopamine replacement therapies ([4]; patients on dopamine replacement therapies): reduces the side effects
UPDRS scores at end of study (EOS) ([5]; 30 days after cessation of treatment, FIG. 1): Scores increase
motor complications (MDS-UPDRS) [5, 7]: reduced
motor performance (MDS-UPDRS) [5, 7]: improved
UPDRS scores ([5]; by day 7 of treatment, PD patients on stable PD therapy, FIG. 1): decrease scores
MDS-UPDRS total scale scores ([5]; oral once daily for 7 days): reduces scores
motor symptoms (UPDRS Part III; clinician ratings of the motor manifestations of PD) ([5]; oral once daily for 7 days, on stable PD therapy): reductions; also recorded: reduces scores
motor complications including dyskinesias (UPDRS Part IV subscale) ([5]; oral once daily for 7 days, Part IV data not shown): reductions; also recorded: reduces scores
CISI-PD Motor Complications Score [6]: reductions; also recorded: decreased
